The test system of test [1] is Escherichia coli. As to the kind of experiment: Inhibition of planktonic growth of Escherichia coli TG1 after 24 hrs. It is filed as organism-based. Conditions: TG1, 24 h.
In test [2] the test system is Salmonella typhimurium. As to the kind of experiment: Antibiofilm activity against Salmonella typhimurium ATCC 14028 after 24 hrs by crystal violet staining based assay. The test is classed as functional, organism-based, Salmonella enterica subsp. enterica serovar Typhimurium. To be noted: Salmonella enterica, ATCC 14028, 24 h.
In test [3] the test system is Staphylococcus aureus. The experiment in a line: Inhibition of planktonic growth of Staphylococcus aureus SH1000 after 48 hrs. It is filed as organism-based. Conditions: SH1000, 48 h.
The subject of test [4] is Escherichia coli. As to the kind of experiment: Antibiofilm activity against Escherichia coli TG1 after 24 hrs by crystal violet staining based assay. The test is classed as functional, organism-based. To be noted: TG1, 24 h.
The subject of test [5] is Staphylococcus aureus. As to the kind of experiment: Antibiofilm activity against Staphylococcus aureus SH1000 after 48 hrs by crystal violet staining based assay. It is filed as functional, organism-based. Conditions: SH1000, 48 h.
Test [6] deals with Salmonella typhimurium. The experiment in a line: Inhibition of planktonic growth of Salmonella typhimurium ATCC 14028 after 24 hrs. The test is classed as organism-based, Salmonella enterica subsp. enterica serovar Typhimurium. Conditions: Salmonella enterica, ATCC 14028, 24 h.
Another test deals with Pseudomonas aeruginosa. The experiment in a line: Antibiofilm activity against Pseudomonas aeruginosa PA14 after 24 hrs by crystal violet staining based assay. The test is classed as functional, organism-based. To be noted: PA14, 24 h.

The results in this text go back to ChEMBL document CHEMBL4219072, “Enhancing the anti-biofilm activity of 5-aryl-2-aminoimidazoles through nature inspired dimerisation” (Bioorg Med Chem, 2018).

Take `Fc1ccc(-c2cnc(NCCCCCCCCNc3ncc(-c4ccc(F)cc4)[nH]3)[nH]2)cc1`: the IC50 in the test with Escherichia coli [1] is 47.6 µM; in the test on Salmonella typhimurium [2], 11.6 µM; with Staphylococcus aureus [3], 250 µM; in the test on Escherichia coli [4], 31.5 µM; in the test with Staphylococcus aureus [5], 372 µM; in the test with Salmonella typhimurium [6], more than 800 µM. The compound also came in with an IC50 with Pseudomonas aeruginosa of 15.2 µM.

As to `c1ccc(-c2cnc(NCCCCCCNc3ncc(-c4ccccc4)[nH]3)[nH]2)cc1`, the IC50 worked out at 2.58 µM in the test on Escherichia coli [1]; 14.2 µM with Salmonella typhimurium [2]; 113 µM with Staphylococcus aureus [3]; 2 µM with Escherichia coli [4]; 99.4 µM with Staphylococcus aureus [5]; 41.3 µM with Salmonella typhimurium [6]. Further, the IC50 in the test with Pseudomonas aeruginosa was found to be 23.7 µM.

For `Brc1ccc(-c2cnc(NCCCCCCCCNc3ncc(-c4ccc(Br)cc4)[nH]3)[nH]2)cc1`, the IC50 in the test with Escherichia coli [1] was 136 µM; in the test on Salmonella typhimurium [2], 31.3 µM; with Staphylococcus aureus [3], 69.3 µM; in the test on Escherichia coli [4], 90.6 µM; in the test with Staphylococcus aureus [5] it was 68.1 µM; in the test on Salmonella typhimurium [6], more than 800 µM. The same compound gave an IC50 in the test with Pseudomonas aeruginosa of 893 µM.

As to `Nc1ncc(-c2ccc(Cl)cc2)n1CCCCCCCCn1c(-c2ccc(Cl)cc2)cnc1N`, the IC50 is 2.8 µM with Escherichia coli [1]; 2 µM in the test on Salmonella typhimurium [2]; 3.9 µM in the test on Staphylococcus aureus [3]; 1.1 µM in the test with Escherichia coli [4]; 6.1 µM in the test with Staphylococcus aureus [5]; 47.8 µM with Salmonella typhimurium [6]. Further, half-maximal inhibition in the test on Pseudomonas aeruginosa (IC50) was put at 1.3 µM.

Turning to `Brc1ccc(-c2cnc(NCCCCCCCNc3ncc(-c4ccc(Br)cc4)[nH]3)[nH]2)cc1`, the IC50 is 122 µM with Escherichia coli [1]; 50.4 µM with Salmonella typhimurium [2]; 217 µM in the test on Staphylococcus aureus [3]; 19.1 µM in the test with Escherichia coli [4]; 300 µM in the test on Staphylococcus aureus [5]; more than 800 µM in the test on Salmonella typhimurium [6]. In the test with Pseudomonas aeruginosa, it took 252 µM to reach half-maximal inhibition (IC50).

As for `Nc1ncc(-c2ccccc2)[nH]1`, the IC50 is 146 µM in the test with Escherichia coli [4] and more than 800 µM with Staphylococcus aureus [5].

Regarding `c1ccc(-c2cnc(NCCCCCCCNc3ncc(-c4ccccc4)[nH]3)[nH]2)cc1`, the 50% inhibitory concentration (IC50) was 12.9 µM with Escherichia coli [1]; 12.6 µM in the test on Salmonella typhimurium [2]; 689 µM in the test on Staphylococcus aureus [3]; 11.8 µM in the test on Escherichia coli [4]; 400 µM with Staphylococcus aureus [5]; more than 800 µM in the test on Salmonella typhimurium [6]. Also, the IC50 with Pseudomonas aeruginosa came to 4.6 µM.

On to `Nc1ncc(-c2ccc(Br)cc2)n1CCCCCn1c(-c2ccc(Br)cc2)cnc1N`, for which the IC50 in the test with Escherichia coli [1] was 6.7 µM; in the test on Salmonella typhimurium [2] it was 4 µM; in the test with Staphylococcus aureus [3], 8.76 µM; in the test on Escherichia coli [4], 6.3 µM; in the test on Staphylococcus aureus [5] it was 7.4 µM; in the test with Salmonella typhimurium [6], 35.9 µM. For the same compound, in the test with Pseudomonas aeruginosa, half-maximal inhibition (IC50) was put at 6.1 µM.

Turning to `Clc1ccc(-c2cnc(NCCCCCCCCNc3ncc(-c4ccc(Cl)cc4)[nH]3)[nH]2)cc1`, the IC50 with Escherichia coli [1] came out at 44 µM; with Salmonella typhimurium [2], 8.3 µM; with Staphylococcus aureus [3] it was 121 µM; with Escherichia coli [4], 42.7 µM; with Staphylococcus aureus [5], 300 µM; in the test on Salmonella typhimurium [6] it was 47.8 µM. Also, half-maximal inhibition in the test on Pseudomonas aeruginosa (IC50) required 31.6 µM.

Consider `Nc1ncc(-c2ccc(Br)cc2)[nH]1`, for which the IC50 with Escherichia coli [4] stood at 8.8 µM; with Staphylococcus aureus [5], 152 µM.

With `Clc1ccc(-c2cnc(NCCCCNc3ncc(-c4ccc(Cl)cc4)[nH]3)[nH]2)cc1`, the IC50 with Escherichia coli [1] amounted to 31.6 µM; in the test on Salmonella typhimurium [2], 12.3 µM; in the test on Staphylococcus aureus [3], 158 µM; with Escherichia coli [4], 9.3 µM; in the test on Staphylococcus aureus [5] it was 200 µM; in the test on Salmonella typhimurium [6], 41.6 µM. In the test with Pseudomonas aeruginosa, this compound gave an IC50 of 13 µM.

As for `Brc1ccc(-c2cnc(NCCCCNc3ncc(-c4ccc(Br)cc4)[nH]3)[nH]2)cc1`, the IC50 in the test on Escherichia coli [1] was more than 100 µM; in the test on Salmonella typhimurium [2] it was 13.2 µM; with Staphylococcus aureus [3], 145 µM; in the test with Escherichia coli [4] it was 7.2 µM; in the test with Staphylococcus aureus [5], 300 µM; in the test on Salmonella typhimurium [6], more than 800 µM. Besides, in the test with Pseudomonas aeruginosa, the IC50 was determined as 11.2 µM.

Take `Fc1ccc(-c2cnc(NCCCNc3ncc(-c4ccc(F)cc4)[nH]3)[nH]2)cc1`: the half-inhibitory concentration (IC50) with Escherichia coli [1] amounted to 16.2 µM; in the test with Salmonella typhimurium [2], 6.3 µM; in the test with Staphylococcus aureus [3], 60.1 µM; with Escherichia coli [4], 4.8 µM; with Staphylococcus aureus [5], 50 µM; in the test on Salmonella typhimurium [6] it was 59.2 µM. The midpoint of inhibition in the test on Pseudomonas aeruginosa, the IC50, lay at 5.7 µM.

For the compound `Clc1ccc(-c2cnc(NCCCCCCCNc3ncc(-c4ccc(Cl)cc4)[nH]3)[nH]2)cc1`, the IC50 in the test on Escherichia coli [1] is 29.8 µM; with Salmonella typhimurium [2], 23 µM; with Staphylococcus aureus [3], 141 µM; in the test on Escherichia coli [4], 35 µM; in the test with Staphylococcus aureus [5] it was 150 µM; in the test on Salmonella typhimurium [6], more than 800 µM. This compound also registered an IC50 with Pseudomonas aeruginosa of 120 µM.

With `Nc1ncc(-c2ccccc2)n1CCCCn1c(-c2ccccc2)cnc1N`, the IC50 in the test with Escherichia coli [1] was determined as 50.4 µM; in the test on Salmonella typhimurium [2] it was 13.5 µM; in the test on Staphylococcus aureus [3], 255 µM; in the test on Escherichia coli [4] it was 27.5 µM; in the test with Staphylococcus aureus [5], 275 µM; with Salmonella typhimurium [6], 59.3 µM. In the test with Pseudomonas aeruginosa, this compound returned an IC50 of 23.6 µM.

For the compound `c1ccc(-c2cnc(NCCCCCCCCNc3ncc(-c4ccccc4)[nH]3)[nH]2)cc1`, the IC50 with Escherichia coli [1] was 48.7 µM; in the test on Salmonella typhimurium [2] it was 11.2 µM; in the test with Staphylococcus aureus [3], 230 µM; in the test on Escherichia coli [4], 19.3 µM; with Staphylococcus aureus [5] it was 300 µM; with Salmonella typhimurium [6], more than 800 µM. In the test on Pseudomonas aeruginosa, this compound gave an IC50 of 21.3 µM.

For the compound `Nc1ncc(-c2ccc(F)cc2)n1CCCCCCn1c(-c2ccc(F)cc2)cnc1N`, the IC50 with Escherichia coli [1] is more than 800 µM; in the test on Salmonella typhimurium [2], 3.2 µM; in the test with Staphylococcus aureus [3], 34.4 µM; with Escherichia coli [4] it was 1.8 µM; with Staphylococcus aureus [5] it was 48 µM; in the test on Salmonella typhimurium [6] it was 23.8 µM. For the same compound, half-maximal inhibition in the test on Pseudomonas aeruginosa (IC50) was put at 11.6 µM.

On to `Nc1ncc(-c2ccccc2)n1CCCCCn1c(-c2ccccc2)cnc1N`, for which the IC50 in the test with Escherichia coli [1] was more than 800 µM; with Salmonella typhimurium [2] it was 20.2 µM; with Staphylococcus aureus [3] it was 85.7 µM; in the test on Escherichia coli [4] it was 10.5 µM; in the test on Staphylococcus aureus [5], 96.1 µM; in the test on Salmonella typhimurium [6], 89.8 µM. The compound further displayed an IC50 in the test on Pseudomonas aeruginosa of 33.1 µM.

In the case of `Nc1ncc(-c2ccc(Cl)cc2)n1CCCCCCn1c(-c2ccc(Cl)cc2)cnc1N`, the IC50 is more than 400 µM with Escherichia coli [1]; 4.8 µM in the test with Salmonella typhimurium [2]; 7.4 µM in the test on Staphylococcus aureus [3]; 4 µM in the test on Escherichia coli [4]; 8.6 µM in the test with Staphylococcus aureus [5]; 300 µM with Salmonella typhimurium [6]. In addition, in the test on Pseudomonas aeruginosa, the IC50 was 3.2 µM.

Consider `Brc1ccc(-c2cnc(NCCCCCCNc3ncc(-c4ccc(Br)cc4)[nH]3)[nH]2)cc1`, for which the IC50 was 6.43 µM in the test on Escherichia coli [1]; 15.7 µM with Salmonella typhimurium [2]; 93.8 µM with Staphylococcus aureus [3]; 8.3 µM in the test on Escherichia coli [4]; 53.3 µM with Staphylococcus aureus [5]; more than 800 µM in the test on Salmonella typhimurium [6]. The same compound returned an IC50 with Pseudomonas aeruginosa of 8.8 µM.

With `Fc1ccc(-c2cnc(NCCCCCCCNc3ncc(-c4ccc(F)cc4)[nH]3)[nH]2)cc1`, the half-inhibitory concentration (IC50) in the test on Escherichia coli [1] stood at 7.48 µM; in the test with Salmonella typhimurium [2], 10.4 µM; in the test with Staphylococcus aureus [3] it was 121 µM; in the test with Escherichia coli [4], 10 µM; in the test with Staphylococcus aureus [5], 107 µM; in the test with Salmonella typhimurium [6], 86.1 µM. The IC50 in the test with Pseudomonas aeruginosa stood at 7.5 µM.

For the compound `Fc1ccc(-c2cnc(NCCCCNc3ncc(-c4ccc(F)cc4)[nH]3)[nH]2)cc1`, the IC50 in the test with Escherichia coli [1] was determined as 4.55 µM; in the test with Salmonella typhimurium [2], 5.9 µM; in the test with Staphylococcus aureus [3] it was 144 µM; in the test with Escherichia coli [4] it was 6.5 µM; in the test with Staphylococcus aureus [5] it was 40.6 µM; in the test on Salmonella typhimurium [6] it was 46 µM. The half-inhibitory concentration (IC50) with Pseudomonas aeruginosa was found to be 5.6 µM.

As to `Nc1ncc(-c2ccc(F)cc2)[nH]1`, the IC50 was 75.5 µM in the test on Escherichia coli [4] and more than 800 µM in the test with Staphylococcus aureus [5].

For `Nc1ncc(-c2ccc(Cl)cc2)[nH]1`, the IC50 in the test on Escherichia coli [4] was found to be 18 µM; in the test on Staphylococcus aureus [5], 121 µM.
